In ChEMBL document CHEMBL3124811, “Potent and selective double-headed thiophene-2-carboximidamide inhibitors of neuronal nitric oxide synthase for the treatment of melanoma” (J Med Chem, 2014):

Assays:
[1] = Selectivity ratio of Ki(app) for recombinant bovine eNOS to Ki(app) for recombinant rat nNOS
[2] = Selectivity ratio of Ki(app) for recombinant mouse iNOS to Ki(app) for recombinant rat nNOS
Nitric oxide synthase 3 = target: T1, Nitric oxide synthase 3 (Bos taurus, UniProt P29473)
T1 sequence (P29473 whole entry): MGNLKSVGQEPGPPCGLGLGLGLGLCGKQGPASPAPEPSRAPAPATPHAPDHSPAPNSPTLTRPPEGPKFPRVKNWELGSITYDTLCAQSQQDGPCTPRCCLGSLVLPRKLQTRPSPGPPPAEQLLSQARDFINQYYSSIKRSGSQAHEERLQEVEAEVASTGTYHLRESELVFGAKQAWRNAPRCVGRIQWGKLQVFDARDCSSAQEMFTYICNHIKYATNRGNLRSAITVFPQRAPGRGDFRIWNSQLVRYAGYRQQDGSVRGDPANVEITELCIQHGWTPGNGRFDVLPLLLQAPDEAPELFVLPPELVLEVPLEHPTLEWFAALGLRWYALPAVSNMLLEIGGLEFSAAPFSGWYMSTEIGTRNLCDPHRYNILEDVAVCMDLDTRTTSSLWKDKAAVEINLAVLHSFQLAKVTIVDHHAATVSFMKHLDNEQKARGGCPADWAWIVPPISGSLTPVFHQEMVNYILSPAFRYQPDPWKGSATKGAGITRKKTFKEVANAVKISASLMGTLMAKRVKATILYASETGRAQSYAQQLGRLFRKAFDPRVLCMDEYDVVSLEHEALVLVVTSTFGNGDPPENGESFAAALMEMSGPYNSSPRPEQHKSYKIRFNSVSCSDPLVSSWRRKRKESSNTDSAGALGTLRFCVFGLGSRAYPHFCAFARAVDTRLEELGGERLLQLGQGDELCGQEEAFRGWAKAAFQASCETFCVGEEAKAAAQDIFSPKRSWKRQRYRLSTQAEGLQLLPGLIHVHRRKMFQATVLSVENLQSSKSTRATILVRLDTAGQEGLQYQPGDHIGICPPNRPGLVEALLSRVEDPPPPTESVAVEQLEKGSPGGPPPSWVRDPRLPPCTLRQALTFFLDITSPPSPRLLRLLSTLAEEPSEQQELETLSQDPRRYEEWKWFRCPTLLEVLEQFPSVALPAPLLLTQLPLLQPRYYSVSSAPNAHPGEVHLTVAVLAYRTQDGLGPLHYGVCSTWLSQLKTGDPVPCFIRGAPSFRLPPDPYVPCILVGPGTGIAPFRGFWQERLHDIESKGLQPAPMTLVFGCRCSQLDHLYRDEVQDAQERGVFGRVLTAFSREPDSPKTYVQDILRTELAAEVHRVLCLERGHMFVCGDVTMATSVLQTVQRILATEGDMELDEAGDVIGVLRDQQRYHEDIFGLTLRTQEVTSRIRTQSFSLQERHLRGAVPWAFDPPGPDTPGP

[3] = target: T2, Nitric oxide synthase, inducible (Mus musculus, UniProt P29477)
T2 sequence (P29477 whole entry): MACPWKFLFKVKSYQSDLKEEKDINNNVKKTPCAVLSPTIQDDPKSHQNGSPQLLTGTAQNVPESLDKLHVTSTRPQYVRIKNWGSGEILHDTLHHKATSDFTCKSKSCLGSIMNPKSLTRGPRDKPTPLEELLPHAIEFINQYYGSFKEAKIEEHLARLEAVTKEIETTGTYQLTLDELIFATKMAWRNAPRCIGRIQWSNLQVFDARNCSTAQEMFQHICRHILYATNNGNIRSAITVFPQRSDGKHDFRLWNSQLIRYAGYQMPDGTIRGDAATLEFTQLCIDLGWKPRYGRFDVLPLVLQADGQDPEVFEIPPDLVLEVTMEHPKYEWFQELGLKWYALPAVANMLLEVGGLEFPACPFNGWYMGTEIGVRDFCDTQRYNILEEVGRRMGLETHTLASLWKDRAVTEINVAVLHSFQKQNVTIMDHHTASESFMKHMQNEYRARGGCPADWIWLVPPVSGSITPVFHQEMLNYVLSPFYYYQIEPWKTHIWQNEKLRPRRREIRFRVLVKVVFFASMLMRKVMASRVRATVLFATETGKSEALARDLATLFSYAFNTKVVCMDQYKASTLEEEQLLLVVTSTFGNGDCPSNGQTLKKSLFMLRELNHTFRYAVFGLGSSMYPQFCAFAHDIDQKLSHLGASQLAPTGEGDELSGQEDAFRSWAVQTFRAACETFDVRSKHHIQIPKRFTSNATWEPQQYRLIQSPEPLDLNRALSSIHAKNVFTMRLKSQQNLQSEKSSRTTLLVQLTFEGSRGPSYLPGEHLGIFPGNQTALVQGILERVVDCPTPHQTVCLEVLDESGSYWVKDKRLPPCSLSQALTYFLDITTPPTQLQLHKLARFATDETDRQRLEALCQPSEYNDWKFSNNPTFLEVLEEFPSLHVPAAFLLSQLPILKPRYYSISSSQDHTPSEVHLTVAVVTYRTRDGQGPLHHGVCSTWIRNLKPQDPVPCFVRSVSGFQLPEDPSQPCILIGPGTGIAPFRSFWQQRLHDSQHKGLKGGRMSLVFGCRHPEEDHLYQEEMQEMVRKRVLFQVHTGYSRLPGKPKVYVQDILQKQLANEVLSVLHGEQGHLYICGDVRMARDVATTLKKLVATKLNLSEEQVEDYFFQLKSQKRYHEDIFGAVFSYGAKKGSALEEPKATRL

Nitric oxide synthase 1 = Nitric oxide synthase 1 (Rattus norvegicus, UniProt P29476)
Sequence of Nitric oxide synthase 1 (P29476 whole entry): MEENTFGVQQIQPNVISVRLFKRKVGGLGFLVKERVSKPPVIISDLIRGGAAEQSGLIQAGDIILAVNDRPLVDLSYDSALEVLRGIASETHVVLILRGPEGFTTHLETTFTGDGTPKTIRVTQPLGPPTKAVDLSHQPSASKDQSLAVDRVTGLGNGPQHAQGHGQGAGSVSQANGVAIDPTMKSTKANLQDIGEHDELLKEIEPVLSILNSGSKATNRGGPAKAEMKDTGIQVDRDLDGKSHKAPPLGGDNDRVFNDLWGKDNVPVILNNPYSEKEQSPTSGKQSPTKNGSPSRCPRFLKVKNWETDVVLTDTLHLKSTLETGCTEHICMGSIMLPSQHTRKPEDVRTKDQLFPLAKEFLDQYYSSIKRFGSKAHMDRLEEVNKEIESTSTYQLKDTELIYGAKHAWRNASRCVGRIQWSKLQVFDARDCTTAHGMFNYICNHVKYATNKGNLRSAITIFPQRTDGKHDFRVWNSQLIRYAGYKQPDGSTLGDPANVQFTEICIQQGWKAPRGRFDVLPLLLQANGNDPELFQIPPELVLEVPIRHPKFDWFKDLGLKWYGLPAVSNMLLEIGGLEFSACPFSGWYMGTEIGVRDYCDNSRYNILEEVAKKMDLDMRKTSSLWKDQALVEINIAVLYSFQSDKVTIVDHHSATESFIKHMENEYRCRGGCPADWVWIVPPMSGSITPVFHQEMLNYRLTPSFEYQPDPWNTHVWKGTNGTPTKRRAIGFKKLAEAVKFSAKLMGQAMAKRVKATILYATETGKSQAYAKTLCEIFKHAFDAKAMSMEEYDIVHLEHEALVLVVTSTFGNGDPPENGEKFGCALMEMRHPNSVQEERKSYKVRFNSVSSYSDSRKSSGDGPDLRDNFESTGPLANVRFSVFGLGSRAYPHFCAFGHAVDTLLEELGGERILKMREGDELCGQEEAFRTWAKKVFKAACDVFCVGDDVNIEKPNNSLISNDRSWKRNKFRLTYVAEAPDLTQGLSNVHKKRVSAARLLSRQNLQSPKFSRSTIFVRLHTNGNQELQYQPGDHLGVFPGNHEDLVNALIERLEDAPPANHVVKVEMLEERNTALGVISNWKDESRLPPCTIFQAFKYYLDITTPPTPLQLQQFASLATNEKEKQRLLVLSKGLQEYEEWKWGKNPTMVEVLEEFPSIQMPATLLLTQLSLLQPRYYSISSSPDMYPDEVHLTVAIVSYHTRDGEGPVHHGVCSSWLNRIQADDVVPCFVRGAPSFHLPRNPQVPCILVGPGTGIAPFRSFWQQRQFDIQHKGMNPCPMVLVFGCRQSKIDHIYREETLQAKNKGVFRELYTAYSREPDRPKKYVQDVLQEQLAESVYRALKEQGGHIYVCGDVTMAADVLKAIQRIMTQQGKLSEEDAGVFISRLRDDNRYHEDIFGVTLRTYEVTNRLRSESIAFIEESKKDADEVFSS

Row | SMILES | Ratio Ki(app) [1] | Ratio Ki(app) [2] | Ki (Nitric oxide synthase 3) [µM] | Ki [3] [µM] | Ki (Nitric oxide synthase 1) [µM]
1 | N=C(Nc1cccc(OCCCOc2cccc(NC(=N)c3cccs3)c2)c1)c1cccs1 | 17 | 53 | 4 | 12.6 | 0.237
2 | NC(=Nc1cccc(OCCOc2cccc(N=C(N)c3cccs3)c2)c1)c1cccs1 | – | – | 13.7 | 66.8 | 0.13
3 | NC(=Nc1cccc(Cc2cccc(N=C(N)c3cccs3)c2)c1)c1cccs1 | – | – | 133 | 79 | –

The next lines start with the values.

Row | Ratio Ki(app) [1] | Ratio Ki(app) [2] | Ki (Nitric oxide synthase 3) [µM] | Ki [3] [µM] | Ki (Nitric oxide synthase 1) [µM] | SMILES
4 | 225 | 84 | 177 | 66.4 | 0.787 | N=C(Nc1cccc(-c2cccc(NC(=N)c3cccs3)c2)c1)c1cccs1
5 | 89 | 141 | 66 | 104 | 0.739 | N=C(Nc1cccc(CCc2cccc(NC(=N)c3cccs3)c2)c1)c1cccs1
6 | 105 | 513 | – | – | – | N=C(Nc1cccc(OCCOc2cccc(NC(=N)c3cccs3)c2)c1)c1cccs1
